The values that follow are results of earlier work, collected in patent US7109191B2, “Benzazepinone alpha vintegrin receptor antagonists” (Merck & Co., Inc., priority 2001, dated 2006).

The data set has as its system postmenopausal osteoporotic women. To be noted: after a median of 22 months of treatment.

Turning to “hPTH(1–34): human parathyroid hormone 1–34 fragment (SVSEIQLMHNLGKHLNSMERVEWLRKKLQDVHNF; Parathyroid hormone; UniProt P01270 32-65, looked up, fragment)”, the “reduction in nonvertebral fractures” value is 54% and the “reduction in spine fractures” value is at least 65%.
